In US12077503B2, “Substituted cyclic amides and their use as herbicides” (FMC CORPORATION, priority 2015, dated 2024):

What was measured:
Type in all cases: in vivo
Kochia (Kochia scoparia) [1] = assay: Test A preemergence; settings: Bassia scoparia, pre-emergence, 240 h, preemergence, 0 to 100 scale where 0 is no effect and 100 is complete control, read-out: Kochia plant response rating
Procedure, shortened: (§1)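 Seeds sprayed preemergence with a directed soil spray, or plants at 2 to 10 cm height and one- to two-leaf stage sprayed postemergence, with test chemicals in a non-phytotoxic solvent mixture containing surfactant, in loam soil–sand blend. Injury rated visually against untreated controls after about 10 d in greenhouse, 0 (no effect) to 100 (complete control).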

[2] = tested on: barnyardgrass (Echinochloa crus-galli); assay: Test A preemergence; settings: Echinochloa crus-galli, pre-emergence, 240 h, preemergence, 0 to 100 scale where 0 is no effect and 100 is complete control, read-out: Barnyardgrass plant response rating
Procedure, shortened: as §1

[3] = tested on: giant foxtail (Setaria faberii); assay: Test A preemergence; settings: Setaria faberi, pre-emergence, 240 h, preemergence, 0 to 100 scale where 0 is no effect and 100 is complete control, read-out: Foxtail, Giant plant response rating
Procedure, shortened: as §1

[4] = tested on: pigweed (Amaranthus retroflexus); assay: Test A preemergence; settings: Amaranthus retroflexus, pre-emergence, 240 h, preemergence, 0 to 100 scale where 0 is no effect and 100 is complete control, read-out: Pigweed plant response rating
[5] = tested on: ragweed (common ragweed, Ambrosia elatior); assay: Test A preemergence; settings: Ambrosia artemisiifolia, pre-emergence, 240 h, preemergence, 0 to 100 scale where 0 is no effect and 100 is complete control, read-out: Ragweed plant response rating
Procedure, shortened: as §1

[6] = tested on: ryegrass, Italian (Italian ryegrass, Lolium multiflorum); assay: Test A preemergence; settings: Lolium multiflorum, pre-emergence, 240 h, preemergence, 0 to 100 scale where 0 is no effect and 100 is complete control, read-out: Ryegrass, Italian plant response rating
Procedure, shortened: as §1

[7] = tested on: Galium (catchweed bedstraw, Galium aparine); assay: Test A postemergence; settings: Galium, post-emergence, 240 h, postemergence
Procedure, shortened: as §1

Kochia (Kochia scoparia) [8] = assay: Test A postemergence; settings: Bassia scoparia, post-emergence, 240 h, postemergence
Procedure, shortened: as §1

[9] = tested on: barnyardgrass (Echinochloa crus-galli); assay: Test A postemergence; settings: Echinochloa crus-galli, post-emergence, 240 h, postemergence
Procedure, shortened: as §1

[10] = tested on: blackgrass (Alopecurus myosuroides); assay: Test A postemergence; settings: Alopecurus myosuroides, post-emergence, 240 h, postemergence
Procedure, shortened: as §1

corn (Zea mays) = assay: Test A postemergence; settings: Zea mays, post-emergence, 240 h, postemergence
Procedure, shortened: as §1

[11] = tested on: giant foxtail (Setaria faberii); assay: Test A postemergence; settings: Setaria faberi, post-emergence, 240 h, postemergence
Procedure, shortened: as §1

[12] = tested on: pigweed (Amaranthus retroflexus); assay: Test A postemergence; settings: Amaranthus retroflexus, post-emergence, 240 h, postemergence
Procedure, shortened: as §1

[13] = tested on: ragweed (common ragweed, Ambrosia elatior); assay: Test A postemergence; settings: Ambrosia artemisiifolia, post-emergence, 240 h, postemergence
Procedure, shortened: as §1

[14] = tested on: ryegrass, Italian (Italian ryegrass, Lolium multiflorum); assay: Test A postemergence; settings: Lolium multiflorum, post-emergence, 240 h, postemergence
Procedure, shortened: as §1

[15] = tested on: wheat (Triticum aestivum); assay: Test A postemergence; settings: Triticum aestivum, post-emergence, 240 h, 125 g ai/ha, postemergence, visual injury vs untreated controls after approx. 10 d; 0 = no effect, 100 = complete control; read-out: Wheat plant response rating (0 to 100 scale)
Procedure, shortened: as §1

[16] = 125 g ai/ha, visual injury rating, approximately 10 d

O=C1NC[C@H](c2ccc(C(F)(F)F)cc2)C1C(=O)Nc1c(F)cccc1CO (stereo partly shown) [Compound 1243]
0%: pest or weed control at 125 g/ha (Kochia (Kochia scoparia) [1]; [16]) | pest or weed control at 500 g/ha (Kochia (Kochia scoparia) [1]; 500 g ai/ha) | pest or weed control at 125 g/ha [2, 16] | pest or weed control at 500 g/ha ([2]; 500 g ai/ha) | pest or weed control at 125 g/ha [3, 16] | pest or weed control at 500 g/ha ([3]; 500 g ai/ha) | pest or weed control at 125 g/ha [4, 16] | pest or weed control at 500 g/ha ([4]; 500 g ai/ha) | pest or weed control at 125 g/ha [5, 16] | pest or weed control at 500 g/ha ([5]; 500 g ai/ha) | pest or weed control at 125 g/ha [6, 16] | pest or weed control at 500 g/ha ([6]; 500 g ai/ha) | pest or weed control at 125 g/ha ([7]; 125 g ai/ha, visual injury vs untreated controls after approx. 10 d, 0 = no effect, 100 = complete control, read-out: Galium plant response rating (0 to 100 scale)) | pest or weed control at 500 g/ha ([7]; 500 g ai/ha, 0 to 100 scale, 0 is no effect, 100 is complete control, read-out: Galium plant response rating) | pest or weed control at 125 g/ha (Kochia (Kochia scoparia) [8]; 125 g ai/ha, visual injury vs untreated controls after approx. 10 d, 0 = no effect, 100 = complete control, read-out: Kochia plant response rating (0 to 100 scale)) | pest or weed control at 500 g/ha (Kochia (Kochia scoparia) [8]; 500 g ai/ha, 0 to 100 scale, 0 is no effect, 100 is complete control, read-out: Kochia plant response rating) | pest or weed control at 125 g/ha ([9]; 125 g ai/ha, visual injury vs untreated controls after approx. 10 d, 0 = no effect, 100 = complete control, read-out: Barnyardgrass plant response rating (0 to 100 scale)) | pest or weed control at 500 g/ha ([9]; 500 g ai/ha, 0 to 100 scale, 0 is no effect, 100 is complete control, read-out: Barnyardgrass plant response rating) | pest or weed control at 125 g/ha ([10]; 125 g ai/ha, visual injury vs untreated controls after approx. 10 d, 0 = no effect, 100 = complete control, read-out: Blackgrass plant response rating (0 to 100 scale)) | pest or weed control at 500 g/ha ([10]; 500 g ai/ha, 0 to 100 scale, 0 is no effect, 100 is complete control, read-out: Blackgrass plant response rating) | plant injury at 125 g/ha (corn (Zea mays); 125 g ai/ha, visual injury vs untreated controls after approx. 10 d, 0 = no effect, 100 = complete control, read-out: Corn plant response rating (0 to 100 scale)) | plant injury at 500 g/ha (corn (Zea mays); 500 g ai/ha, 0 to 100 scale, 0 is no effect, 100 is complete control, read-out: Corn plant response rating) | pest or weed control at 125 g/ha ([11]; 125 g ai/ha, visual injury vs untreated controls after approx. 10 d, 0 = no effect, 100 = complete control, read-out: Foxtail, Giant plant response rating (0 to 100 scale)) | pest or weed control at 500 g/ha ([11]; 500 g ai/ha, 0 to 100 scale, 0 is no effect, 100 is complete control, read-out: Foxtail, Giant plant response rating) | pest or weed control at 125 g/ha ([12]; 125 g ai/ha, visual injury vs untreated controls after approx. 10 d, 0 = no effect, 100 = complete control, read-out: Pigweed plant response rating (0 to 100 scale)) | pest or weed control at 500 g/ha ([12]; 500 g ai/ha, 0 to 100 scale, 0 is no effect, 100 is complete control, read-out: Pigweed plant response rating) | pest or weed control at 125 g/ha ([13]; 125 g ai/ha, visual injury vs untreated controls after approx. 10 d, 0 = no effect, 100 = complete control, read-out: Ragweed plant response rating (0 to 100 scale)) | pest or weed control at 500 g/ha ([13]; 500 g ai/ha, 0 to 100 scale, 0 is no effect, 100 is complete control, read-out: Ragweed plant response rating) | pest or weed control at 125 g/ha ([14]; 125 g ai/ha, visual injury vs untreated controls after approx. 10 d, 0 = no effect, 100 = complete control, read-out: Ryegrass, Italian plant response rating (0 to 100 scale)) | pest or weed control at 500 g/ha ([14]; 500 g ai/ha, 0 to 100 scale, 0 is no effect, 100 is complete control, read-out: Ryegrass, Italian plant response rating) | plant injury at 125 g/ha [15]
